Source: BindingDB's records for doi:10.1016/j.bioorg.2016.07.002 (Universiti Teknologi Mara, 2016)

Each compound was assayed against T1, Beta-glucuronidase (Bos taurus, UniProt A3KMY8) (assay: β-Glucuronidase assay).
T1 sequence (A3KMY8 whole entry): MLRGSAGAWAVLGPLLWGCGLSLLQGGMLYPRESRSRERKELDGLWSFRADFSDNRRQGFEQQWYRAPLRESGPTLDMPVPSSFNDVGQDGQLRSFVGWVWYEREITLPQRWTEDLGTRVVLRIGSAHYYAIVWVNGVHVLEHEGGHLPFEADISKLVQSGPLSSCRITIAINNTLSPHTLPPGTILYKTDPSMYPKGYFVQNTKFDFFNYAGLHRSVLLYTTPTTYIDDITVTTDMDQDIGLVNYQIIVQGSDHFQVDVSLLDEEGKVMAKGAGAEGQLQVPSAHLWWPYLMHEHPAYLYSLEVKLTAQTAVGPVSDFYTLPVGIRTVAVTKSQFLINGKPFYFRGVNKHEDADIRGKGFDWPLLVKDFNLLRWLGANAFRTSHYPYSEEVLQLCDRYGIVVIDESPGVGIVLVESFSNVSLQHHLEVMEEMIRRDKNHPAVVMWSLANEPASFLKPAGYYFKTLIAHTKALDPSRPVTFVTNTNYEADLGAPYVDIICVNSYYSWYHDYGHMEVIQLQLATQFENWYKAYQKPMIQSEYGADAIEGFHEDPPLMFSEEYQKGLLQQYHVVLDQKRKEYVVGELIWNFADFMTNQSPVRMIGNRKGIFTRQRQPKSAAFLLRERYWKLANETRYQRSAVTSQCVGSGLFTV
Procedure: […] was the volume of total reaction. Reaction mixture containing 5 µL of test compound solution, 185 µL of 0.1 M acetate buffer and 10 µL of enzyme solution wereincubated for 30 min at 37 °C. […] Experiments were performed for triplicate. To avoid precipitation compound concentration were decreased and the volume of reactionwas high (200 µL).
For O=S(=O)(Nc1ccccc1SSc1ccccc1NS(=O)(=O)c1ccc(Cl)cc1Cl)c1ccc(Cl)cc1Cl [N,N'-(disulfanediylbis(2,1-phenylene))bis(2,4-dichlorobenzenesulfonamide) (17)], the IC50 was 11.3 µM. With O=S(=O)(Nc1ccccc1SSc1ccccc1NS(=O)(=O)c1cc(Cl)ccc1Cl)c1cc(Cl)ccc1Cl [N,N'-(disulfanediylbis(2,1-phenylene))bis(2,5-dichlorobenzenesulfonamide) (18)] the IC50 was 16.2 µM. For O=S(=O)(Nc1ccccc1SSc1ccccc1NS(=O)(=O)c1ccccc1Br)c1ccccc1Br [N,N'-(disulfanediylbis(2,1-phenylene))bis(2-bromobenzenesulfonamide) (7)], the IC50 was 58.5 µM. Work on O=S(=O)(Nc1ccccc1SSc1ccccc1NS(=O)(=O)c1ccccc1Cl)c1ccccc1Cl [N,N'-(disulfanediylbis(2,1-phenylene))bis(2-chlorobenzenesulfonamide) (1)] yielded an IC50 of 8.18 µM. For O=S(=O)(Nc1ccccc1SSc1ccccc1NS(=O)(=O)c1ccccc1F)c1ccccc1F [N,N'-(disulfanediylbis(2,1-phenylene))bis(2-fluorobenzenesulfonamide) (4)], the IC50 was 6.23 µM. In the case of Cc1ccccc1S(=O)(=O)Nc1ccccc1SSc1ccccc1NS(=O)(=O)c1ccccc1C [N,N'-(disulfanediylbis(2,1-phenylene))bis(2-methylbenzenesulfonamide) (14)], the IC50 is reported as 34.3 µM. O=[N+]([O-])c1ccccc1S(=O)(=O)Nc1ccccc1SSc1ccccc1NS(=O)(=O)c1ccccc1[N+](=O)[O-] [N,N'-(disulfanediylbis(2,1-phenylene))bis(2-nitrobenzenesulfonamide) (10)] gave an IC50 of 14.2 µM. O=S(=O)(Nc1ccccc1SSc1ccccc1NS(=O)(=O)c1cccc(Br)c1)c1cccc(Br)c1 [N,N'-(disulfanediylbis(2,1-phenylene))bis(3-bromobenzenesulfonamide) (9)] showed an IC50 of 88.2 µM. With O=S(=O)(Nc1ccccc1SSc1ccccc1NS(=O)(=O)c1cccc(Cl)c1)c1cccc(Cl)c1 [N,N'-(disulfanediylbis(2,1-phenylene))bis(3-chlorobenzenesulfonamide) (2)] the IC50 was 25 µM. Work on O=S(=O)(Nc1ccccc1SSc1ccccc1NS(=O)(=O)c1cccc(F)c1)c1cccc(F)c1 [N,N'-(disulfanediylbis(2,1-phenylene))bis(3-fluorobenzenesulfonamide) (5)] yielded an IC50 of 34.5 µM. O=[N+]([O-])c1cccc(S(=O)(=O)Nc2ccccc2SSc2ccccc2NS(=O)(=O)c2cccc([N+](=O)[O-])c2)c1 [N,N'-(disulfanediylbis(2,1-phenylene))bis(3-nitrobenzenesulfonamide) (12)] showed an IC50 of 59.3 µM. In the case of O=S(=O)(Nc1ccccc1SSc1ccccc1NS(=O)(=O)c1ccc(F)cc1)c1ccc(F)cc1 [N,N'-(disulfanediylbis(2,1-phenylene))bis(4-fluorobenzenesulfonamide) (6)], the IC50 is reported as 13.2 µM. In the case of COc1ccc(S(=O)(=O)Nc2ccccc2SSc2ccccc2NS(=O)(=O)c2ccc(OC)cc2)cc1 [N,N'-(disulfanediylbis(2,1-phenylene))bis(4-methoxybenzenesulfonamide) (20)], the IC50 is reported as 56.3 µM. For O=[N+]([O-])c1ccc(S(=O)(=O)Nc2ccccc2SSc2ccccc2NS(=O)(=O)c2ccc([N+](=O)[O-])cc2)cc1 [N,N'-(disulfanediylbis(2,1-phenylene))bis(4-nitrobenzenesulfonamide) (11)], the IC50 was 28.4 µM.
